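Protocol summary: plate cells (96-well), add compound at 5 concentrations, incubate 48 h, interpolate endpoints linearly. GI50: concentration for 50% inhibition of growth. TGI: total growth inhibition.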
These compounds were tested on OVCAR-3 ovarian (assay: DTP human tumour cell line panel, 48 h).
For `Cc1cc(C)n(CCNCCn2nc(C)cc2C)n1`, the TGI was > 100 µM.
`O=C1CSC(Cc2nc3ccccc3[nH]2)=N1` was tested, and the TGI was 31.6 µM.
For `O=C(Nc1cccc(Cl)c1Cl)c1cccc(NC2=C(Cl)C(=O)N(Cc3ccccc3)C2=O)c1`, the GI50 was 16.5 µM and the TGI was 77.4 µM.
For `O=C(/C=C/c1ccccc1)/C=C/c1ccccc1`, the TGI was 51.3 µM.
In the case of `CCOC(=O)C1=C(C)N(N)C(=S)NC1c1ccc(C)cc1` (stereo not drawn), the GI50 is reported as 22.4 µM and the TGI is reported as > 100 µM.
With `N#CC(C#N)=c1[nH]c2cccc3c2-c2c(cccc2c3=C(C#N)C#N)[nH]1` the TGI was > 100 µM.

Each compound was assayed on SNB-19 CNS (assay: DTP human tumour cell line panel, 48 h).
`N#CC1(C2SCCS2=O)C2=C(C(=O)c3ccccc3C2=O)N2CCCC21` (stereo not drawn) was tested, and the TGI was 16.8 µM.
For `CC(=O)Oc1ccccc1C(=O)N=C1[Se]CCN1C(=O)c1ccccc1OC(C)=O`, the GI50 was 1.23 µM and the TGI was 4.31 µM.
For `O=S(O)CCCCSSCc1ccccc1CSSCCCCS(=O)O`, the TGI was > 100 µM.
Work on `Cc1n(Cc2ccc3ccccc3c2)cc[n+]1Cc1ccc2ccccc2c1` yielded a GI50 of 0.676 µM and a TGI of 3.13 µM.
In the case of `O=C(O)Cc1c(O)ccc2ccccc12`, the TGI is reported as > 100 µM.
`CSC1(CC(=O)N(C)C)C(=O)Nc2ccccc21` (stereo not drawn) was tested, and the TGI was > 100 µM.
`COc1cc(/C=C2\C(=O)Nc3ccc(F)cc32)cc(OC)c1OC` was tested, and the GI50 was 38.4 µM and the TGI was > 100 µM.
`C#C[C@]1(O)CC[C@H]2[C@@H]3CC=C4c5sc(Nc6ccccc6)nc5CC[C@]4(C)[C@H]3CC[C@@]21C` showed a GI50 of 1.99 µM and a TGI of 7.16 µM.
`O=C(O)c1c(-c2nccc3ccccc23)[nH]c(-c2ccccc2)c1S(=O)(=O)O` was tested, and the TGI was > 100 µM.
`Cc1cn2c(/C=C3/C(=O)Nc4ccccc43)c(-c3ccc(Cl)cc3)nc2s1` showed a GI50 of 7.01 µM and a TGI of 13.5 µM.
`O=C(CCC/C(CC(=O)c1ccc(Br)cc1)=N\O)Nc1ccccc1` was tested, and the TGI was > 100 µM.
Work on `Cc1c[n+](Cc2ccc3ccccc3c2)cn1Cc1ccc2ccccc2c1` yielded a GI50 of 1.54 µM and a TGI of 3.14 µM.
With `COc1ccccc1NC(=O)C1=C(C)NC(C)=C(C(=O)Nc2ccccc2OC)C1c1ccc([N+](=O)[O-])cc1` the TGI was > 100 µM.
In the case of `O=C(CSc1nnc(-c2ccccc2NC(=O)C(F)(F)F)c(=O)[nH]1)NC(=O)Nc1ccccc1`, the TGI is reported as > 100 µM.
Work on `CN1CCc2c(Sc3ccc(C(=O)NO)cc3)c3ccccc3n2C1` yielded a GI50 of 2.12 µM and a TGI of 6.79 µM.
In the case of `CN(C)c1ccc2nc3ccc(=O)cc-3sc2c1`, the GI50 is reported as 2.63 µM and the TGI is reported as > 100 µM.
In the case of `CC(=O)c1c(CBr)n([O-])c2ccccc2[n+]1=O`, the GI50 is reported as 18.8 µM and the TGI is reported as 40 µM.
`C#CC(=O)Nc1cccc(Nc2nc3c(c(NCc4ccccc4)n2)CCCC3)c1` gave a GI50 of 0.591 µM and a TGI of 1.98 µM.
In the case of `COc1ccc(C(=O)C(CO)Oc2ccccc2OC)cc1OC` (stereo not drawn), the TGI is reported as > 100 µM.
`CC(C)(C)C(=O)/C=C/c1ccc(Oc2ccccc2)cc1` gave a TGI of 68.1 µM.
For `CN=NN(C)C(=O)NC`, the TGI was > 100 µM.
`c1ccc2c3ccn4cc5c(cc4c-3nc2c1)CCCC5` was tested, and the GI50 was 3.49 µM and the TGI was 13.8 µM.
With `CC(C)c1ccccc1S(=O)c1ccccc1C(C)(C)O` (stereo not drawn) the TGI was > 100 µM.
Compound `Cc1c(C2Nc3ccccc3C2C)[nH]c2ccccc12` (stereo not drawn) has a GI50 of 13.8 µM and a TGI of 38 µM.
For `CCOC(=O)CCc1c(C)c2c(OC(C)=O)cc(OC(C)=O)cc2oc1=O`, the TGI was > 100 µM.
For `O=C(CN1CCCCC1)N1CCc2c([nH]c3ccccc23)C1c1cccnc1` (stereo not drawn), the TGI was > 100 µM.
`COc1cc2cn3c4ccc(O)cc4[nH]c(=O)c3c2cc1OC` was tested, and the GI50 was 0.0245 µM and the TGI was 1.94 µM.
With `O=C(O)c1cccc(OCCO)c1` the TGI was > 100 µM.
With `COc1ccc(C2C(C#N)=C(N)OC3=C2COc2ccc(F)cc23)cc1OC` (stereo not drawn) the GI50 was 73.8 µM and the TGI was > 100 µM.
`Cc1cc(C)n(CCNCCn2nc(C)cc2C)n1` was tested, and the TGI was > 100 µM.
`O=C1CSC(Cc2nc3ccccc3[nH]2)=N1` gave a TGI of 80.8 µM.
In the case of `O=C(Nc1cccc(Cl)c1Cl)c1cccc(NC2=C(Cl)C(=O)N(Cc3ccccc3)C2=O)c1`, the GI50 is reported as > 100 µM and the TGI is reported as > 100 µM.
For `CCOC(=O)C1=C(C)N(N)C(=S)NC1c1ccc(C)cc1` (stereo not drawn), the GI50 was 73 µM and the TGI was > 100 µM.
In the case of `N#CC(C#N)=c1[nH]c2cccc3c2-c2c(cccc2c3=C(C#N)C#N)[nH]1`, the TGI is reported as > 100 µM.
